Test system: micronucleated reticulocytes (MNPCE) in mouse peripheral blood
Conditions: in vivo, 50 mg/kg, 24 h
Method: 200 to 300 μl of a peripheral blood sample was collected from a mouse using orbital veinipuncture into a test tube containing heparin. The sample was kept at room temperature for analysis.
10 μl of the anticoagulated blood sample was diluted with 290 μl of the isotonic diluent of Example 1 in a test tube. 10 μl of anti CD71-FITC monoclonal antibody at saturating concentration was added into the diluted blood, and the test tube was vortexed and then incubated at room temperature for 30 minutes. 20 μl of the diluted sample containing anti CD71-FITC antibody was taken into a second test tube, and 400 μl of the permeation reagent of Example 1 was added and vortexed immediately. The formed permeation sample mixture was incubated at room temperature for 10 minutes. […]
The final sample mixture was analyzed on a FC500 MCL cytometer (Beckman Coulter, Inc., Fullerton, Calif.). […]
Both FL1 and FL4 were in a logarithmic scale. FL1 and FL4 were the fluorescent signals of the final sample mixture detected at 525 nm and 675 nm, respectively. […]
A mouse was treated with methyl methane sulfonate with a dosage of 50 mg/Kg 24 hours prior to the blood collection. The peripheral blood was collected and processed as described in Example 2, and the final sample mixture was analyzed on the same FC500 MCL cytometer with the identical instrument setting.

## COS(C)(=O)=O [methyl methane sulfonate]
  micronucleated reticulocytes (percentage of reticulocytes containing micronuclei): 1.30%

— patent publication US20090035758A1, “Method of Measurement of Micronucleated Erythrocyte Populations” (BECKMAN COULTER, INC., priority 2007, published 2009)
